Results on 26 compounds are retold here after publication PMC5708365, “Histone lysine methyltransferase structure activity relationships that allow for segregation of G9a inhibition and anti-Plasmodium activity” (MedChemComm, 2017).

The target of one experiment is T1, G9a (Homo sapiens, UniProt Q96KQ7).
T1 sequence (Q96KQ7 1-1210): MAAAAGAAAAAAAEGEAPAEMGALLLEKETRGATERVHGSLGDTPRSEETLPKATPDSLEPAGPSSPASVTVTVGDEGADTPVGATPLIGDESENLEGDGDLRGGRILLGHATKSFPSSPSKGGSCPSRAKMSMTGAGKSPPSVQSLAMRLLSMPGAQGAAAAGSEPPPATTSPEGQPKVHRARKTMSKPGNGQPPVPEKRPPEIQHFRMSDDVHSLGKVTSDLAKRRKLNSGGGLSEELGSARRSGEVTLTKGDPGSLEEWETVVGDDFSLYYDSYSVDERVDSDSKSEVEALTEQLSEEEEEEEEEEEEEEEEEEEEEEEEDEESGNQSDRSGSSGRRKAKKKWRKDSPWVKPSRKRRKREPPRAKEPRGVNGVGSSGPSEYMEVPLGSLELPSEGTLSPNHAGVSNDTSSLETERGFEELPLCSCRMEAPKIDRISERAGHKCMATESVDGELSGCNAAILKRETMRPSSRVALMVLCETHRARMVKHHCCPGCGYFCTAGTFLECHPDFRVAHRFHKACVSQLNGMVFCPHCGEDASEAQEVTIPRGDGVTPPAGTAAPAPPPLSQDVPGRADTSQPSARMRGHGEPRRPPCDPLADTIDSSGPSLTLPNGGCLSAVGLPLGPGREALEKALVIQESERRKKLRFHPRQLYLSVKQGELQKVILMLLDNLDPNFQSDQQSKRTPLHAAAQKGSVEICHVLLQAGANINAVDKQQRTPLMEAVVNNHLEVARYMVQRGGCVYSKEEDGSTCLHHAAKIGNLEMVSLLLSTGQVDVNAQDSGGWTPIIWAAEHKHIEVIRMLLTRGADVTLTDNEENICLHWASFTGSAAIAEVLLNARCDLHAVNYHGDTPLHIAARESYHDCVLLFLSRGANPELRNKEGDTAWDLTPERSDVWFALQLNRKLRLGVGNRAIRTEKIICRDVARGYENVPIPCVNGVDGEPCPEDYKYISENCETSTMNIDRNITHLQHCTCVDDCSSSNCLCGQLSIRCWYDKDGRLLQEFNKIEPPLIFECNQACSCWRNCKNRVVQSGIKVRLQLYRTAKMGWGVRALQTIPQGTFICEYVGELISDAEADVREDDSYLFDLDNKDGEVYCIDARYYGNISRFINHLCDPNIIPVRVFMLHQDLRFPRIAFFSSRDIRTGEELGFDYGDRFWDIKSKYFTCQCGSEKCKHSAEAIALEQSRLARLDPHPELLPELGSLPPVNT
Particulars: SPA, 5 nM G9a, H3 1-25 peptide 0.8 μM, 3H-SAM 8 μM.
In the case of `COc1cc2c(NC3CCN(C)CC3)nc(N3CCCN(C)CC3)nc2cc1OCc1ccccc1` [compound 60], the “G9a IC50” value is “complete loss of G9a activity”.

On to `COc1cc2c(NC3CCN(Cc4ccccc4)CC3)nc(N3CCCCC3)nc2cc1OCc1ccccc1` [compound 62], for which the “G9a IC50” value is recorded as “virtually no G9a inhibition”.

Staying with this experiment, now noted: read-out: G9a IC50; SPA, 5 nM G9a, H3 1-25 peptide 0.8 μM, 3H-SAM 8 μM.
As for `CCCCCCCCOc1cc2nc(N3CCCN(C)CC3)nc(NC3CCN(Cc4ccccc4)CC3)c2cc1OC` [compound 73], the IC50 (in general, the concentration needed to halve the response being measured) came to 211 nM.

With `COc1cc2nc(N3CCC(C)CC3)nc(NC3CCN(Cc4ccccc4)CC3)c2cc1OC` [compound 11], the IC50 is 1330 nM.

Consider `COc1cc2c(NC3CCN(C(C)C)CC3)nc(N3CCN(C)CC3)nc2cc1OCCC(C)C` [compound 82], for which the IC50 was determined as 2030 nM.

For `CCCCCCOc1cc2nc(NCCCN(C)C)nc(NC3CCN(Cc4ccccc4)CC3)c2cc1OC` [compound 75], the IC50 was 39 nM.

As to `COc1cc2nc(N3CCCN(C)CC3)nc(NC3CCN(CC4CCCCC4)CC3)c2cc1OC` [compound 44], the IC50 amounted to 10 nM.

On to `COc1cc2c(NC3CCN(Cc4ccccc4)CC3)nc(N3CCN(C)CC3)nc2cc1OCCCSC` [compound 83], for which the IC50 was determined as 223 nM.

`COc1cc2c(NC3CCN(Cc4ccccc4)CC3)nc(N3CCN(C)CC3)nc2cc1OCCC(C)C` [compound 81]: the IC50 turned out to be 5340 nM.

On to `COc1cc2cc(N3CCCCC3)nc(NC3CCN(Cc4ccccc4)CC3)c2cc1OC` [compound 87, N-(1-Benzylpiperidin-4-yl)-6,7-dimethoxy-3-(piperidin-1-yl)isoquinolin-1-amine], for which the IC50 is greater than 25000 nM.

With `COc1cc2nc(N3CCCCC3)nc(NC3CCN(Cc4cccc(F)c4)CC3)c2cc1OC` [compound 29], the IC50 is roughly 1000 nM.

In the case of `COc1cc2nc(N3CCCCC3)nc(NC3CCN(Cc4ccccc4)C3)c2cc1OC` (stereo not shown) [compound 33], the IC50 came to 830 nM.

As for `COc1cc2nc(N3CCCCCC3)nc(NC3CCN(Cc4ccccc4)CC3)c2cc1OC` [compound 9], the IC50 came to 332 nM.

Regarding `COc1cc2nc(N3CCC(OC)CC3)nc(NC3CCN(Cc4ccccc4)CC3)c2cc1OC` [compound 12], the half-maximal inhibitory concentration (IC50) stood at 576 nM.

`COc1cc2nc(N3CCCCC3)nc(NC3CCN(Cc4cccc(C)c4)CC3)c2cc1OC` [compound 25]: the IC50 amounted to 869 nM.

In the case of `COc1cc2nc(N3CCN(C)CC3)nc(NC3CCN(CC4CCCCC4)CC3)c2cc1OC` [compound 45], the IC50 stood at 25 nM.

With `CCCCCOc1cc2nc(N3CCN(C)CC3)nc(NC3CCN(Cc4ccccc4)CC3)c2cc1OC` [compound 78], the 50% inhibitory concentration (IC50) is roughly 1000 nM.

With `COc1cc2nc(N3CCN(c4ccccn4)CC3)nc(NC3CCN(Cc4ccccc4)C3)c2cc1OC` (stereo not shown) [compound 34], the IC50 was roughly 10000 nM.

`COc1cc2nc(N3CCN(C)CC3)nc(Nc3ccccc3)c2cc1OC` [compound 57]: the IC50 was greater than 10000 nM.

For `COc1cc2c(NC3CCN(C)CC3)nc(N3CCCN(C)CC3)nc2cc1OCc1ccccc1` [compound 60], the IC50 was greater than 1000 nM.

Take `COc1cc2nc(N3CCN(C)CC3)nc(NC3CCN(Cc4ccccc4F)CC3)c2cc1OC` [compound 23]: the concentration for half-maximal inhibition (IC50) came out at 116 nM.

Consider `COc1cc2nc(N3CCN(C)CC3)nc(NC3CCN(Cc4ccccc4C)CC3)c2cc1OC` [compound 20], for which the IC50 was determined as 169 nM.

For the compound `CCCCCCCCOc1cc2nc(N3CCN(C)CC3)nc(NC3CCN(Cc4ccccc4)CC3)c2cc1OC` [compound 76], the IC50 came to 1020 nM.

Take `CCCCOc1cc2nc(N3CCN(C)CC3)nc(NC3CCN(Cc4ccccc4)CC3)c2cc1OC` [compound 79]: the IC50 worked out at 683 nM.

For the compound `COc1cc2nc(N3CCN(c4ccccn4)CC3)nc(NC3CCN(C(=O)c4ccccc4)CC3)c2cc1OC` [compound 35], the IC50 was greater than 10000 nM.

In the case of `COc1cc2nc(N3CCN(C)CC3)cc(NC3CCN(C)CC3)c2cc1OC` [compound 91, 6,7-Dimethoxy-2-(4-methylpiperazin-1-yl)-N-(1-methylpiperidin-4-yl)quinolin-4-amine], the IC50 came out at 30 nM.

Turning to `COc1cc2nc(N3CCN(C)CC3)nc(NC3CCN(Cc4cccc(F)c4)CC3)c2cc1OC` [compound 22], the IC50 worked out at 132 nM.

As for `COc1cc2c(NC3CCN(Cc4ccccc4)CC3)nc(N3CCCCC3)nc2cc1OCc1ccccc1` [compound 62], the IC50 was greater than 50000 nM.
